Reference: US20250319172A1, “ANTICANCER VACCINE COMPOSITION COMPRISING HSP90 ANTIGENIC PEPTIDE AND USE THEREOF” (ASTON SCI. INC., priority 2021, published 2025)

Test system: HSP90 antigenic peptide-specific IFN-γ production in spleen cells
Assay: IFN-γ ELISpot of splenocytes after test vaccination (Th1 immune response), Example 1
Type: in vivo, C57BL/6 mice
Details: antigen HSP90 peptide of SEQ ID NO: 1; s.c. three times every 10 days; splenocytes 10 days after last inoculation; FIG. 1A
Protocol: To analyze the efficacy of antigenic peptides selected from HSP90 (see Table 1) and various adjuvants and liposomes, test vaccines were prepared with the compositions in Table 2 and Table 3. In the case of G6 and G7 formulations, since a liposome is included in the formulations, the drug release rate is slowed, and in this regard, the amount of antigenic peptide was reduced to 20% when preparing the test vaccine. The prepared test vaccine G to G7 formulations were immunized using C57BL/B6 mice (female, 7 weeks old), 4 mice per group. […]
The test vaccine was inoculated with each vaccine formulation by subcutaneous injection three times every 10 days for 4 mice in each group, and splenocytes were isolated from the spleens of mice sacrificed 10 days after the last inoculation, the specific response to each HSP90 antigenic peptide was measured through the ELISpot method for IFN-γ or IL-10 stimulated by the HSP90 antigenic peptide (stimulant) of SEQ ID NO: 1 or SEQ ID NO: 2 according to the previously known method by Disis et al. (J Clin Oncol. 2009 Oct. 1; 27 (28): 4685-92).
If HSP90 antigenic peptide-specific IFN-γ production increased in spleen cells measured by the ELISpot method after test vaccination, the Th1 immune response was considered activated, and if the HSP90 antigenic peptide-specific IL-10 production increased, the Th2 immune response was considered activated.

Which “HSP90-specific Th1 immune response (IFN-γ ELISpot)” value does the source give for “LYVRRVFIMDNCEEL [SEQ ID NO: 1, HSP90 antigenic peptide, region p485-499 of HSP90]” here?
The value was “effectively induces HSP90-specific T cell immune response”.
